From patent JP2017128553A, “抗癌剤、抗癌剤の制御方法” (IHI Corp, priority 2016, dated 2017)

Assay: MRI造影効果: MRI contrast effect of solutions (T1- and T2-weighted, 7.0T)
Type: physicochemical
Settings: aqueous solution, 0, 1.3, 2.5, 5mM, T1- and T2-weighted images, Fig. 6(C)

MRI image appearance: いずれの濃度においても白色の高シグナル
Structure (SMILES): Cc1ccc(Nc2nccc(N(C)c3ccc4c(C)n(C)nc4c3)n2)cc1S(N)(=O)=O [比較例1, 2-メチル-5-[[4-[メチル(2,3-ジメチル-2H-インダゾール-6-イル)アミノ]ピリミジン-2-イル]アミノ]ベンゼンスルホンアミド]
